# Article PMC12749166, “Fragment-based drug design of a bacterial kinase inhibitor capable of increasing the antibiotic sensitivity of clinical isolates” (Communications Chemistry, 2025)
# Experiments:
# P. aeruginosa C0307 = assay: Checkerboard assay of 83 with kanamycin A; assay type: cell-based; conditions: for checkerboard well reading (growth): Supp. Figure 3 B
# APH(3’)-IIa = molecular target: T1, APH(3’)-IIa (Klebsiella pneumoniae, UniProt P00552); assay: biochemical; design: species or system K. pneumoniae
# T1 construct: His-tag (inferred from HisTrap purification); made in house; host or cells: E. coli BL21
# T1 sequence (P00552 whole entry): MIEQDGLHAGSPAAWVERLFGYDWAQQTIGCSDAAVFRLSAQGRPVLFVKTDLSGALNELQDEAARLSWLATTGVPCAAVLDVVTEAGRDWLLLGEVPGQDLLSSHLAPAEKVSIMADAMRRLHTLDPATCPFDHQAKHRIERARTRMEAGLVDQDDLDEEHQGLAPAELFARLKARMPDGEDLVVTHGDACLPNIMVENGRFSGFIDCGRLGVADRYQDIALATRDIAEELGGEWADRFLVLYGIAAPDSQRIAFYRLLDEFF
# APH(2”)-IVa = APH(2”)-IVa (Enterococcus casseliflavus, UniProt O68183); assay: IC50 by HPLC quantification of ATP and ADP; assay type: biochemical, E. casseliflavus
# Sequence of APH(2”)-IVa (O68183 entry or part of it): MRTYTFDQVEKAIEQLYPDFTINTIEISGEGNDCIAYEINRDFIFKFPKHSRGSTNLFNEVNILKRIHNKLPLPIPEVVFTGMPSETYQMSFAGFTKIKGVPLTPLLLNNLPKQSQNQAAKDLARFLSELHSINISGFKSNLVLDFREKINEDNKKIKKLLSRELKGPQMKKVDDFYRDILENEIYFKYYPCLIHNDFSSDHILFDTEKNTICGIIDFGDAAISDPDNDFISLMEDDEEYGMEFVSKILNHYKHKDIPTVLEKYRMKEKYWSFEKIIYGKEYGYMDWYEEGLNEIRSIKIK
# Procedure: The reaction mixture consists of the APH and its substrates, as well as a potential inhibitor for inhibition measurements. Reactions were initiated by adding the ATP solution supplemented or not with the inhibitor, in a thermostated beaker containing the APH. […] The reaction was stopped at several time points by adding 80 µL of the enzymatic reaction mixture from the beaker to 40 µL of 10% perchloric acid (PCA) in an Eppendorf tube. Samples were then centrifuged for 30 min at 12750 rpm and 8 °C. 100 µL of the supernatant was then mixed with 900 µL of mobile phase (250 mM NaH2PO4, 50% Acetonitrile, pH 5.5) supplemented with KOH to readjust the pH to 5.5 before injection. […] 100 µL of samples were injected on a SAX PartiSphere column (AIT France) at a flow rate of 1 mL min^−1. ATP and ADP peaks were integrated, and the area under the peaks was calculated using OpenLab CDS software (v. ChemStation, Agilent). The kss values were then measured using linear regression in GraFit software and IC50 determined by fitting with a hyperbola the percentage of inhibition as a function of inhibitor concentration. The standard error of the IC50 value was determined in the GraFit software based on the fitting of the experimental data.
structure (smiles),measurement,setting,value
Clc1cnc2[nH]ccc2c1-c1ccn[nH]1 [Compound 83],checkerboard well reading (growth),"P. aeruginosa C0307; 83 1 µg.mL-1, kanamycin A 32 µg.mL-1",1.181
same,checkerboard well reading (growth),"P. aeruginosa C0307; 83 1 µg.mL-1, kanamycin A 64 µg.mL-1",0.113
same,checkerboard well reading (growth),"P. aeruginosa C0307; 83 1 µg.mL-1, kanamycin A 128 µg.mL-1",0.042
same,checkerboard well reading (growth),"P. aeruginosa C0307; 83 2 µg.mL-1, kanamycin A 0 µg.mL-1",1.144
same,checkerboard well reading (growth),"P. aeruginosa C0307; 83 2 µg.mL-1, kanamycin A 2 µg.mL-1",1.163
same,checkerboard well reading (growth),"P. aeruginosa C0307; 83 2 µg.mL-1, kanamycin A 4 µg.mL-1",1.143
same,checkerboard well reading (growth),"P. aeruginosa C0307; 83 2 µg.mL-1, kanamycin A 8 µg.mL-1",1.140
same,checkerboard well reading (growth),"P. aeruginosa C0307; 83 2 µg.mL-1, kanamycin A 16 µg.mL-1",1.101
same,checkerboard well reading (growth),"P. aeruginosa C0307; 83 2 µg.mL-1, kanamycin A 32 µg.mL-1",1.112
same,checkerboard well reading (growth),"P. aeruginosa C0307; 83 2 µg.mL-1, kanamycin A 64 µg.mL-1",0.172
same,checkerboard well reading (growth),"P. aeruginosa C0307; 83 2 µg.mL-1, kanamycin A 128 µg.mL-1",0.038
same,checkerboard well reading (growth),"P. aeruginosa C0307; 83 4 µg.mL-1, kanamycin A 0 µg.mL-1",1.132
same,checkerboard well reading (growth),"P. aeruginosa C0307; 83 4 µg.mL-1, kanamycin A 2 µg.mL-1",1.139
same,checkerboard well reading (growth),"P. aeruginosa C0307; 83 4 µg.mL-1, kanamycin A 4 µg.mL-1",1.161
same,checkerboard well reading (growth),"P. aeruginosa C0307; 83 4 µg.mL-1, kanamycin A 8 µg.mL-1",1.123
same,checkerboard well reading (growth),"P. aeruginosa C0307; 83 4 µg.mL-1, kanamycin A 16 µg.mL-1",1.163
same,checkerboard well reading (growth),"P. aeruginosa C0307; 83 4 µg.mL-1, kanamycin A 32 µg.mL-1",1.149
same,checkerboard well reading (growth),"P. aeruginosa C0307; 83 4 µg.mL-1, kanamycin A 64 µg.mL-1",0.250
same,checkerboard well reading (growth),"P. aeruginosa C0307; 83 4 µg.mL-1, kanamycin A 128 µg.mL-1",0.041
same,checkerboard well reading (growth),"P. aeruginosa C0307; 83 8 µg.mL-1, kanamycin A 0 µg.mL-1",1.480
same,checkerboard well reading (growth),"P. aeruginosa C0307; 83 8 µg.mL-1, kanamycin A 2 µg.mL-1",1.120
same,checkerboard well reading (growth),"P. aeruginosa C0307; 83 8 µg.mL-1, kanamycin A 4 µg.mL-1",1.107
same,checkerboard well reading (growth),"P. aeruginosa C0307; 83 8 µg.mL-1, kanamycin A 8 µg.mL-1",1.138
same,checkerboard well reading (growth),"P. aeruginosa C0307; 83 8 µg.mL-1, kanamycin A 16 µg.mL-1",1.202
same,checkerboard well reading (growth),"P. aeruginosa C0307; 83 8 µg.mL-1, kanamycin A 32 µg.mL-1",1.141
same,checkerboard well reading (growth),"P. aeruginosa C0307; 83 8 µg.mL-1, kanamycin A 64 µg.mL-1",0.170
same,checkerboard well reading (growth),"P. aeruginosa C0307; 83 8 µg.mL-1, kanamycin A 128 µg.mL-1",0.040
same,checkerboard well reading (growth),"P. aeruginosa C0307; 83 16 µg.mL-1, kanamycin A 0 µg.mL-1",1.350
same,checkerboard well reading (growth),"P. aeruginosa C0307; 83 16 µg.mL-1, kanamycin A 2 µg.mL-1",1.145
same,checkerboard well reading (growth),"P. aeruginosa C0307; 83 16 µg.mL-1, kanamycin A 4 µg.mL-1",1.177
same,checkerboard well reading (growth),"P. aeruginosa C0307; 83 16 µg.mL-1, kanamycin A 8 µg.mL-1",1.181
same,checkerboard well reading (growth),"P. aeruginosa C0307; 83 16 µg.mL-1, kanamycin A 16 µg.mL-1",1.121
same,checkerboard well reading (growth),"P. aeruginosa C0307; 83 16 µg.mL-1, kanamycin A 32 µg.mL-1",1.161
same,checkerboard well reading (growth),"P. aeruginosa C0307; 83 16 µg.mL-1, kanamycin A 64 µg.mL-1",0.077
same,checkerboard well reading (growth),"P. aeruginosa C0307; 83 16 µg.mL-1, kanamycin A 128 µg.mL-1",0.041
same,checkerboard well reading (growth),"P. aeruginosa C0307; 83 32 µg.mL-1, kanamycin A 0 µg.mL-1",1.542
same,checkerboard well reading (growth),"P. aeruginosa C0307; 83 32 µg.mL-1, kanamycin A 2 µg.mL-1",1.314
same,checkerboard well reading (growth),"P. aeruginosa C0307; 83 32 µg.mL-1, kanamycin A 4 µg.mL-1",1.373
same,checkerboard well reading (growth),"P. aeruginosa C0307; 83 32 µg.mL-1, kanamycin A 8 µg.mL-1",1.519
same,checkerboard well reading (growth),"P. aeruginosa C0307; 83 32 µg.mL-1, kanamycin A 16 µg.mL-1",1.301
same,checkerboard well reading (growth),"P. aeruginosa C0307; 83 32 µg.mL-1, kanamycin A 32 µg.mL-1",1.153
same,checkerboard well reading (growth),"P. aeruginosa C0307; 83 32 µg.mL-1, kanamycin A 64 µg.mL-1",0.041
same,checkerboard well reading (growth),"P. aeruginosa C0307; 83 32 µg.mL-1, kanamycin A 128 µg.mL-1",0.042
same,checkerboard well reading (growth),"P. aeruginosa C0307; 83 64 µg.mL-1, kanamycin A 0 µg.mL-1",1.274
same,checkerboard well reading (growth),"P. aeruginosa C0307; 83 64 µg.mL-1, kanamycin A 2 µg.mL-1",1.335
same,checkerboard well reading (growth),"P. aeruginosa C0307; 83 64 µg.mL-1, kanamycin A 4 µg.mL-1",1.176
same,checkerboard well reading (growth),"P. aeruginosa C0307; 83 64 µg.mL-1, kanamycin A 8 µg.mL-1",1.404
same,checkerboard well reading (growth),"P. aeruginosa C0307; 83 64 µg.mL-1, kanamycin A 16 µg.mL-1",1.087
same,checkerboard well reading (growth),"P. aeruginosa C0307; 83 64 µg.mL-1, kanamycin A 32 µg.mL-1",0.939
same,checkerboard well reading (growth),"P. aeruginosa C0307; 83 64 µg.mL-1, kanamycin A 64 µg.mL-1",0.044
same,checkerboard well reading (growth),"P. aeruginosa C0307; 83 64 µg.mL-1, kanamycin A 128 µg.mL-1",0.044
same,checkerboard well reading (growth),"P. aeruginosa C0307; 83 128 µg.mL-1, kanamycin A 0 µg.mL-1",1.377
same,checkerboard well reading (growth),"P. aeruginosa C0307; 83 128 µg.mL-1, kanamycin A 2 µg.mL-1",1.277
same,checkerboard well reading (growth),"P. aeruginosa C0307; 83 128 µg.mL-1, kanamycin A 4 µg.mL-1",1.324
same,checkerboard well reading (growth),"P. aeruginosa C0307; 83 128 µg.mL-1, kanamycin A 8 µg.mL-1",1.318
same,checkerboard well reading (growth),"P. aeruginosa C0307; 83 128 µg.mL-1, kanamycin A 16 µg.mL-1",0.963
same,checkerboard well reading (growth),"P. aeruginosa C0307; 83 128 µg.mL-1, kanamycin A 32 µg.mL-1",0.366
same,checkerboard well reading (growth),"P. aeruginosa C0307; 83 128 µg.mL-1, kanamycin A 64 µg.mL-1",0.038
same,checkerboard well reading (growth),"P. aeruginosa C0307; 83 128 µg.mL-1, kanamycin A 128 µg.mL-1",0.043
same,Impact of 83 alone on bacterial growth,"P. aeruginosa C0307; absence of antibiotics, 83 from 0 to 128 µg mL^−1 (585 µM)",no impact on bacterial growth
same,inhibition at 100 µM,APH(3’)-IIa,76%
same,IC50,APH(2”)-IVa,0.84 ± 0.13 µM
